Measurements: patent US5219839A, “Adenosine derivatives, their methods of preparation and pharmaceutical compositions in which they are present” (Laboratories UPSA, priority 1992, dated 1993)

Key:
A1 receptors = molecular target: T1, A1 receptors (Rattus norvegicus, UniProt P25099); test: Binding to adenosine A1 receptors: competitive displacement of [^3 H] PIA, rat brain membranes; details: [^3 H] PIA 2.5 nM, n=3; for inhibition at 10 µM: 10^-5 M, read-out: % displacement of the labeled ligand, A1, 1E-5M; for inhibition at 0.1 µM: read-out: % displacement of the labeled ligand, A1, 1E-7M
T1 construct: the brain is quickly removed and washed in cold isotonic solution; from tissue; host or cells: rat brain hemispheres (membrane homogenate)
T1 sequence (P25099 1-326): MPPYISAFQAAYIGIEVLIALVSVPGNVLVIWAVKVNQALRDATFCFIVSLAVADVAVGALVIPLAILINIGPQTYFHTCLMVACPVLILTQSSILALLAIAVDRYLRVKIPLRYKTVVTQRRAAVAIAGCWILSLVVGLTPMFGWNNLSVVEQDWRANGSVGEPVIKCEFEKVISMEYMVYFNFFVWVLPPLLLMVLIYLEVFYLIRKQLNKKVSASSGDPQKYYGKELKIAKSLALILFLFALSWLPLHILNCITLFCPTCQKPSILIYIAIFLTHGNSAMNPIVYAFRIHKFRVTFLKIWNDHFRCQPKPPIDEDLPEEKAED
Method: (§1) The affinity of the products of the Examples for the rat central A1 and A2 adenosinergic receptors is determined by the competitive technique using a radioactive ligand specifically bound either to the A1 receptors ([^3 H] PIA) or to the A2 receptors ([^3 H] NECA).
After the animal has been sacrificed by decapitation, the brain is quickly removed and washed in cold isotonic solution. The two hemispheres are separated and weighed and each of them is introduced into a polyallomer tube containing 25 volumes of cold homogenization buffer. Homogenization is effected using an Ultra-Turrax for 30 seconds (3 times 10 seconds with 10-second intervals, 70% of the maximum speed). The ground material obtained is centrifuged at 1000 g (≈3000 rpm) for 10 minutes at 4° C.
The supernatant is centrifuged again at 48,000 g (≈20,000 rpm) for 20 minutes at 4° C.
When this step is complete, the residue is taken up with 4 volumes of homogenization buffer, resuspended using a Vortex and homogenized with the Ultra-Turrax. Adenosine deaminase is then added at a rate of 1 U/ml, i.e. 1 μl/ml of homogenate, using a 10 μl Hamilton syringe.
After this treatment, the homogenate is shaken for 30 minutes at room temperature and then centrifuged at […] (≈20,000 rpm) for 30 minutes at 4° C.
The residue obtained is resuspended in 10 volumes of homogenization buffer and passed through the Ultra-Turrax for 20 seconds (2 times 10 seconds with a 10-second interval, 70% of the maximum speed).
The homogenate prepared in this way is used for the competitive tests. It is kept at 4° C. if the studies take place the same day, or stored at -20° C. in the form of 10 ml aliquots.
After the homogenate has been thawed at room temperature, it is passed through a Potter homogenizer (6 manual to-and-fro movements, speed 6), diluted to 2/5 in incubation buffer and placed in a water bath thermostated at 4° C., with shaking, until the end of the experiment.
(§2) 50 μl of [^3 H] PIA at 100 nM, i.e. 2.5 nM in the final reaction medium allowing for the 1/40 dilution, and 50 μl of the product of the Example at the concentrations considered (10^-5 M and 10^-7 M) are introduced into the reaction tubes. The reaction is initiated by the addition of 1 ml of homogenate and 900 μl of incubation buffer. The procedure is identical for all the beta-blockers studied.
(§3) The tubes are shaken and incubated in a water bath at 20° C. for 30 minutes. When the incubation is complete, the contents of the tubes are filtered on Whatman GF/B paper. Each tube is washed twice with 2 ml of rinsing buffer and then the filters themselves are rinsed with 3 ml of this same buffer.
The filters are then transferred to counting flasks and 10 ml of liquid scintillator (Ready Solv HP/b, Beckman) are added.
After they have been shaken, the flasks are stored in a refrigerator overnight and the radioactivity is then determined in a liquid scintillation counter.
(§4) 3 tests are performed for each concentration studied. The non-specific binding of the [^3 H] PIA is assessed by measuring the amount of radioactivity retained on the filter in the presence of 10^-5 M phenylisopropyladenosine (PIA). The value of the non-specific binding is systematically subtracted from that of the tests.
(§5) The results are expressed for each product in the form of the percentage displacement (n=3) of the labeled radioligand at concentrations of 10^-5 M and 10^-7 M.

A2 receptors = molecular target: T2, A2 receptors (Rattus norvegicus, UniProt P30543); test: Binding to adenosine A2 receptors: competitive displacement of [^3 H] NECA, rat striatum membranes; details: [^3 H] NECA 4 nM, n=3; for inhibition at 10 µM: 10^-5 M, read-out: % displacement of the labeled ligand, A2, 1E-5M; for inhibition at 0.1 µM: read-out: % displacement of the labeled ligand, A2, 1E-7M
T2 construct: The two hemispheres are separated and the striatum is removed from each of them (Bruns et al., 1986); from tissue; host or cells: rat striatum (membrane homogenate)
T2 sequence (P30543 whole entry): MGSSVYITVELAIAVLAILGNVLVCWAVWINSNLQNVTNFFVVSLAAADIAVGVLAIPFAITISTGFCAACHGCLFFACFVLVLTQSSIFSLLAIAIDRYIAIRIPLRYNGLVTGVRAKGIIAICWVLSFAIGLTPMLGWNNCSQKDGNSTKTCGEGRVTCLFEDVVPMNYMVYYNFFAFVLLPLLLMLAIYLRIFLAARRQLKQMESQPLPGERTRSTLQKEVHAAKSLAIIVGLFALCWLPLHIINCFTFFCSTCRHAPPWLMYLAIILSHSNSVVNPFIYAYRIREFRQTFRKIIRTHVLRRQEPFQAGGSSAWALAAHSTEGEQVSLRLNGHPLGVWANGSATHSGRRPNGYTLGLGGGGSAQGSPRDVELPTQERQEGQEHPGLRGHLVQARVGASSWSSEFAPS
Method: as §1
After decapitation of the animal, the brain is quickly removed and washed in cold isotonic solution. The two hemispheres are separated and the striatum is removed from each of them (Bruns et al., 1986), weighed and introduced into a polyallomer tube containing 10 volumes of cold homogenization buffer. The tissue is homogenized with an Ultra-Turrax for 30 seconds (3 times 10 seconds with 10-second intervals, 70% of the maximum speed). The ground material is centrifuged at 50,000 g (≈20,500 rpm) for 10 minutes at 4° C.
The residue obtained is resuspended in 10 volumes of homogenization buffer using a Vortex and homogenized with the Ultra-Turrax (5 to 10 seconds, 70% of the maximum speed).
Adenosine deaminase is then added at a rate of 1 U/ml, i.e. 1 μl/ml of homogenate, using a 10 μl Hamilton syringe. The homogenate treated in this way is shaken at room temperature for 30 minutes.
When the incubation is complete, the homogenate is centrifuged at 50,000 g (≈20,500 rpm) for 10 minutes at 4° C.
The residue is taken up with 5 volumes of cold homogenization buffer and passed through the Ultra-Turrax (2 times 10 seconds with a 10-second interval, 70% of the maximum speed) and the homogenate prepared in this way is finally frozen at -70° C.
After the homogenate has been thawed at room temperature, 15 volumes of incubation buffer are added. The homogenate is shaken on a Vortex, passed through a Potter homogenizer (6 to-and-fro movements, speed 6), diluted to 1/10 in incubation buffer and finally placed in a water bath thermostated at 4° C., with shaking, until the end of the experiment.
as §2, with “NECA” for “PIA”, “160” for “100”, “4” for “2.5”, “similar” for “identical”, “compounds” for “beta-blockers”
as §3, with “25°” for “20°”, “60” for “30”, “buffer before being transferred to counting flasks.” for “buffer.”
10 ml of liquid scintillator (Ready Solv HP/b, Beckman) are added to all the flasks. These are shaken and stored in a refrigerator overnight. The radioactivity is determined in a liquid scintillation counter.
as §4, with “NECA” for “PIA”, “determined” for “assessed”, “5 μM N-ethylcarboxamidoadenosine (NECA).” for “10^-5 M phenylisopropyladenosine (PIA).”
as §5

[1] = tested on: twisting and stretching movements in mice; test: Phenylbenzoquinone test (analgesic activity); format: in vivo; details: Mus musculus, po, one hour before phenylbenzoquinone i.p., 5 minutes observation, read-out: Phenylbenzoquinone test 50% inhibitory dose
Method: The intraperitoneal injection of phenylbenzoquinone causes twisting and stretching movements in mice. Analgesics prevent or reduce this syndrome, which can be considered as the exteriorization of diffuse abdominal pain.
A 0.02% solution of phenylbenzoquinone in water is administered in a volume of 1 ml/100 g.
The products of the Examples are administered orally one hour before the injection of phenylbenzoquinone.
The stretching and twisting movements are counted for each mouse over an observation period of 5 minutes.

SMILES | inhibition at 10 µM (A1 receptors) [%] | inhibition at 0.1 µM (A1 receptors; 10^-7 M) [%] | inhibition at 10 µM (A2 receptors) [%] | inhibition at 0.1 µM (A2 receptors; 10^-7 M) [%] | ED50 [1] [mg/kg] | % displacement of the labeled ligand, A1, 1E-7M (A1 receptors; 10^-7 M, 0.1 µM) [%] | % displacement of the labeled ligand, A2, 1E-7M (A2 receptors; 10^-7 M, 0.1 µM) [%]
OC[C@H]1O[C@@H](n2cnc3c(NCC4CC4(c4ccccc4)c4ccccc4)ncnc32)[C@H](O)[C@@H]1O (mixture of isomers) [Example 51, N^6-(±)-[1,1-Diphenylcyclopropan-2-yl]methyladenosine] | 93 | 18 | 95 | 56 | 31 | – | –
O=C(NC1CC1)[C@H]1O[C@@H](n2cnc3c(NCC4CC4(c4ccccc4)c4ccccc4)ncnc32)[C@H](O)[C@@H]1O (single isomer, unassigned) [Example 43, β-D-Ribofuranuronamido-N-cyclopropyl-1-deoxy-1-[6-[(+)-[[2,2-diphenylcyclopropyl]methyl]amino]-9H-purin-9-yl]] | 97 | – | 96 | – | 1.2 | 44 | 73
OC[C@H]1O[C@@H](n2cnc3c(NCC4CC4(c4ccccc4)c4cc(Cl)cc(Cl)c4)ncnc32)[C@H](O)[C@@H]1O (mixture of isomers) [Example 52, N^6-(±)-[1-(3,5-Dichlorophenyl)-1-phenylcyclopropan-2-yl]methyladenosine] | 92 | 18 | 92 | 28 | 41 | – | –
O=C(NC1CC1)[C@H]1O[C@@H](n2cnc3c(NCC4CC4(c4ccccc4)c4ccccc4)ncnc32)[C@H](O)[C@@H]1O (mixture of isomers) [Example 42, β-D-Ribofuranuronamido-N-cyclopropyl-1-deoxy-1-[6-[(±)-[[2,2-diphenylcyclopropyl]methyl]amino]-9H-purin-9-yl]] | 96 | 20 | 94 | 59 | 0.9 | – | –
